Test results taken from ChEMBL document CHEMBL1201862, “PubChem BioAssay data set” (2004).
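Compound exposure: 48 hours, 5 concentrations, 96-well plates. GI50: concentration for 50% inhibition of growth.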 Active and inactive are the calls of the source. No stated cut-off is given here; in the data, active = GI50 up to about 1.1 µM and inactive = higher.

Key:
Test in all cases: DTP human tumour cell line panel, 48 h
NCI-H226 = system: NCI-H226
CAKI-1 = system: CAKI-1
UO-31 = system: UO-31
SR = system: SR
OVCAR-4 = system: OVCAR-4
MDA-N = system: MDA-N
SN12C = system: SN12C
PC-3 = system: PC-3
TK-10 = system: TK-10
Hs-578T = system: Hs-578T
COLO 205 = system: COLO 205
MCF7 = system: MCF7
MDA-MB-231 = system: MDA-MB-231
T47D = system: T47D
Malme-3M = system: Malme-3M
SF-539 = system: SF-539
SK-MEL-28 = system: SK-MEL-28
HL-60 = system: HL-60
OVCAR-5 = system: OVCAR-5
HOP-62 = system: HOP-62

Structure (SMILES) | GI50 (NCI-H226) | GI50 (CAKI-1) | GI50 (UO-31) | GI50 (SR) | GI50 (OVCAR-4) | GI50 (MDA-N) | GI50 (SN12C) | GI50 (PC-3) | GI50 (TK-10) | GI50 (Hs-578T) | GI50 (COLO 205) | GI50 (MCF7) | GI50 (MDA-MB-231) | GI50 (T47D) | GI50 (Malme-3M) | GI50 (SF-539) | GI50 (SK-MEL-28) | GI50 (HL-60) | GI50 (OVCAR-5) | GI50 (HOP-62)
O=c1[nH]nc(Cc2ccccc2)n1/N=C/c1c(O)ccc2ccccc12 | 24.5 µM (inactive) | 28.2 µM (inactive) | 36.1 µM (inactive) | 21.3 µM (inactive) | 17.2 µM (inactive) | 54.6 µM (inactive) | 41.1 µM (inactive) | 22.9 µM (inactive) | 33 µM (inactive) | 19.4 µM (inactive) | 47.4 µM (inactive) | 37.9 µM (inactive) | 19.7 µM (inactive) | 20.2 µM (inactive) | 20.9 µM (inactive) | 19.8 µM (inactive) |  |  |  | 
CCOC(=O)/C(C#N)=N\Nc1ccc(-n2c(C)nc3ccccc3c2=O)cc1 | 24.5 µM (inactive) | > 100 µM (inactive) | 50.4 µM (inactive) | 39.4 µM (inactive) |  | 47.3 µM (inactive) | > 100 µM (inactive) | 75.3 µM (inactive) | > 100 µM (inactive) | 59 µM (inactive) | 78.3 µM (inactive) | 84.3 µM (inactive) | > 100 µM (inactive) | 34.8 µM (inactive) |  | > 100 µM (inactive) | 33.2 µM (inactive) | 26.5 µM (inactive) | > 100 µM (inactive) | > 100 µM (inactive)
COc1ccc(C2C(C#N)=C(S)N(C3OC(COC(C)=O)C(OC(C)=O)C(OC(C)=O)C3OC(C)=O)C(c3ccccc3)=C2C(C)=O)cc1 (configuration not stated) | > 100 µM (inactive) | > 100 µM (inactive) | 21.6 µM (inactive) |  | > 100 µM (inactive) | 58.5 µM (inactive) | > 100 µM (inactive) | > 100 µM (inactive) | > 100 µM (inactive) | 70.8 µM (inactive) | > 100 µM (inactive) | 63 µM (inactive) | > 100 µM (inactive) | 17.3 µM (inactive) | > 100 µM (inactive) | 76.7 µM (inactive) | > 100 µM (inactive) | 63.8 µM (inactive) | > 100 µM (inactive) | > 100 µM (inactive)
CC1(C)OC(=C(C#N)C#N)C(C#N)=C1/C=C/c1ccncc1 | 2.43 µM (inactive) | 1.97 µM (inactive) | 3.24 µM (inactive) | 2.41 µM (inactive) | 2.96 µM (inactive) | 2.58 µM (inactive) | 2.39 µM (inactive) | 2.29 µM (inactive) | 2.08 µM (inactive) | 3.33 µM (inactive) | 1.88 µM (inactive) | 2.04 µM (inactive) | 2.16 µM (inactive) | 2.48 µM (inactive) | 2.61 µM (inactive) | 1.8 µM (inactive) | 2.39 µM (inactive) |  | 2.89 µM (inactive) | 1.66 µM (inactive)
N#CC1Cc2cc3c(cc21)OCO3 (configuration not stated) | > 100 µM (inactive) | > 100 µM (inactive) | > 100 µM (inactive) | > 100 µM (inactive) | > 100 µM (inactive) | > 100 µM (inactive) | > 100 µM (inactive) | > 100 µM (inactive) | > 100 µM (inactive) | > 100 µM (inactive) | > 100 µM (inactive) | > 100 µM (inactive) | > 100 µM (inactive) | > 100 µM (inactive) | > 100 µM (inactive) | > 100 µM (inactive) | > 100 µM (inactive) |  | > 100 µM (inactive) | > 100 µM (inactive)
CN(C)N1C(=O)CC2(CCN(CCCC(=O)c3ccc(F)cc3)CC2)C1=O | > 100 µM (inactive) | > 100 µM (inactive) | > 100 µM (inactive) | > 100 µM (inactive) |  | > 100 µM (inactive) | > 100 µM (inactive) | > 100 µM (inactive) | > 100 µM (inactive) | > 100 µM (inactive) | > 100 µM (inactive) | > 100 µM (inactive) | > 100 µM (inactive) | > 100 µM (inactive) | > 100 µM (inactive) | > 100 µM (inactive) | > 100 µM (inactive) | > 100 µM (inactive) | > 100 µM (inactive) | > 100 µM (inactive)
COc1ccc2cc(CNCCCCCCCCNCc3ccc4cc(OC)ccc4c3)ccc2c1 | 14 µM (inactive) | 6.67 µM (inactive) | 6.78 µM (inactive) | 1.12 µM (active) | 6.34 µM (inactive) | 7.74 µM (inactive) |  | 1.45 µM (inactive) | 3.37 µM (inactive) | 8.77 µM (inactive) | 2.48 µM (inactive) | 4.27 µM (inactive) | 13.7 µM (inactive) | 21.2 µM (inactive) | 6.85 µM (inactive) |  | 5.78 µM (inactive) | 1.58 µM (inactive) | 6.9 µM (inactive) | 4.97 µM (inactive)
CC(=O)c1ccc(Nc2c3c(nc4ccccc24)CCCC3)cc1 | 14 µM (inactive) | 16.4 µM (inactive) | 5.58 µM (inactive) | 2.47 µM (inactive) | 41.9 µM (inactive) | 2.72 µM (inactive) | 22.9 µM (inactive) | 41.1 µM (inactive) | 42.5 µM (inactive) | 27.9 µM (inactive) | 11.7 µM (inactive) | 18.7 µM (inactive) | 19.6 µM (inactive) | 10.1 µM (inactive) |  | 26.6 µM (inactive) | 50.7 µM (inactive) | 2.73 µM (inactive) | 13.5 µM (inactive) | 10.3 µM (inactive)
